The values that follow come from ChEMBL document CHEMBL4483862, “Open-source discovery of chemical leads for next-generation chemoprotective antimalarials” (2018).

Structures are written as SMILES. Where only a bound is given, the exact number is not on record here.

For the assay, the system named is Plasmodium berghei. As to the kind of experiment: Luciferase/luciferin-expressing antifolate-resistant parasites were used to infect a culture of HepG2 cells that were pre-incubated with compounds. Infected hepatocytes emit light due to the luciferase reaction. Assay results are presented as the percent inhibition of light emission compared to control. […]. The note with it: sporozoite; for IC90: read-out: LUCIFERASE INFECTION ASSAY - IC90. Type of assay: functional.

As a reminder, the IC50 is the concentration at which inhibition is half-maximal. Broadly, the IC90 is the point of the concentration-response curve where the effect stands at 90%. Turning to `C=CCCC(=O)Nc1ccc(Br)cn1`, the IC90 is greater than 12.9 µM. The IC50 (HEPG2TOX_HILL_SLOPE 2.37, HEPG2TOX_R_SQUARED 0.964, PBLUC_HILL_SLOPE 2.08, PBLUC_R_SQUARED 0.0582, read-out: LUCIFERASE INFECTION ASSAY - IC50) came out at 5.2 µM.

Consider `COc1ccc(-n2nc(C)c3c(O)c4c(nc32)CCCC4)cc1`, for which the IC90 was greater than 10.7 µM. Further, the IC50 (HEPG2TOX_HILL_SLOPE 2.37, HEPG2TOX_R_SQUARED 0.552, read-out: LUCIFERASE INFECTION ASSAY - IC50) was greater than 10.7 µM.

With `CCCNc1nccn2c(-c3ccc(C(=O)NC4CC4)cc3)cnc12`, the IC90 stood at 7.31 µM. The IC50 (HEPG2TOX_HILL_SLOPE 2.37, HEPG2TOX_R_SQUARED 0.851, PBLUC_HILL_SLOPE 7.04, PBLUC_R_SQUARED 0.366, read-out: LUCIFERASE INFECTION ASSAY - IC50) was found to be 5.35 µM.

Regarding `Cc1c(-c2ccccc2)sc2ncnc(NCc3nnc4ccccn34)c12`, the IC90 is greater than 10 µM. The IC50 (HEPG2TOX_HILL_SLOPE 2.41, HEPG2TOX_R_SQUARED 0.925, PBLUC_HILL_SLOPE 1.56, PBLUC_R_SQUARED 0.71, read-out: LUCIFERASE INFECTION ASSAY - IC50) stood at 2.86 µM.

Consider `Clc1ccc2[nH]cc(CCNc3nc(Cl)nc4nc[nH]c34)c2c1`, for which the IC90 came out at 0.6 µM. Further, the IC50 (HEPG2TOX_HILL_SLOPE 2.4, HEPG2TOX_R_SQUARED 0.982, PBLUC_HILL_SLOPE 2.19, PBLUC_R_SQUARED 0.753, read-out: LUCIFERASE INFECTION ASSAY - IC50) stood at 0.22 µM.

For the molecule `Cc1sc(NC(=O)c2ccc(Cn3cncn3)cc2)nc1-c1ccc(Br)cc1`, the IC90 was greater than 10 µM. In addition, the IC50 (HEPG2TOX_HILL_SLOPE 2.39, HEPG2TOX_R_SQUARED 0.794, PBLUC_HILL_SLOPE 2.3, PBLUC_R_SQUARED 0.342, read-out: LUCIFERASE INFECTION ASSAY - IC50) was greater than 10 µM.

Turning to `Cc1cn2c(/C=c3\s/c(=C\C(=O)c4ccccc4C)n(C)c3=O)c(C)nc2s1`, the IC90 was determined as 0.619 µM. Where the note is “HEPG2TOX_HILL_SLOPE 2.41, HEPG2TOX_R_SQUARED 0.966, PBLUC_HILL_SLOPE 72.2, PBLUC_R_SQUARED 0.61, read-out: LUCIFERASE INFECTION ASSAY - IC50”, the IC50 came to 0.6 µM.

Regarding `CC(C)(C)OC(=O)N1CCc2nc(NC(=O)c3ccc(Cl)cc3F)sc2C1`, the IC90 came out at 8.96 µM. The IC50 (HEPG2TOX_HILL_SLOPE 2.37, HEPG2TOX_R_SQUARED 0.812, PBLUC_HILL_SLOPE 3.49, PBLUC_R_SQUARED 0.436, read-out: LUCIFERASE INFECTION ASSAY - IC50) amounted to 4.77 µM.

For the molecule `CCC1CCc2sc(C(=O)NNC(=O)c3cnccn3)cc2C1` (stereo not drawn), the IC90 is greater than 10 µM. For the same molecule, the IC50 (HEPG2TOX_HILL_SLOPE 2.38, HEPG2TOX_R_SQUARED 0.712, PBLUC_HILL_SLOPE 3.73, PBLUC_R_SQUARED 0.532, read-out: LUCIFERASE INFECTION ASSAY - IC50) is 6.76 µM.

As to `CC(C)(C)CNC(=S)N/N=C/c1cc(Cl)cc(Cl)c1O`, the IC90 is greater than 9.87 µM. Also, the IC50 (HEPG2TOX_HILL_SLOPE 2.41, HEPG2TOX_R_SQUARED 0.728, PBLUC_HILL_SLOPE 9.45, PBLUC_R_SQUARED 0.267, read-out: LUCIFERASE INFECTION ASSAY - IC50) is 9.07 µM.

Take `COc1ccc(C(=O)C(/C=N/N)=N/Nc2cc(C)cc(C)c2)cc1`: the IC90 worked out at 5.98 µM. For the setting “HEPG2TOX_HILL_SLOPE 2.41, HEPG2TOX_R_SQUARED 0.984, PBLUC_HILL_SLOPE 5.05, PBLUC_R_SQUARED 0.51, read-out: LUCIFERASE INFECTION ASSAY - IC50”, the IC50 was determined as 3.87 µM.

As to `O=S(=O)(c1ccc(Cl)s1)N1CCN(c2ncnc3ccccc23)CC1`, the IC90 was greater than 10 µM. For the setting “HEPG2TOX_HILL_SLOPE 2.41, HEPG2TOX_R_SQUARED 0.894, PBLUC_HILL_SLOPE 2.42, PBLUC_R_SQUARED 0.407, read-out: LUCIFERASE INFECTION ASSAY - IC50”, the IC50 stood at 4.98 µM.

For the molecule `Cc1cc(O)c(/C=N/Nc2ncc(C(F)(F)F)cc2Cl)c(=O)o1`, the IC90 was greater than 9.49 µM. Further, the IC50 (HEPG2TOX_HILL_SLOPE 2.38, HEPG2TOX_R_SQUARED 0.982, PBLUC_HILL_SLOPE 7.99, PBLUC_R_SQUARED 0.344, read-out: LUCIFERASE INFECTION ASSAY - IC50) amounted to 7.73 µM.

For the molecule `CN(CC(=O)Nc1ccc(OC(F)(F)F)cc1)Cc1cc([N+](=O)[O-])ccc1O`, the IC90 came to 3.33 µM. For the same molecule, the IC50 (HEPG2TOX_HILL_SLOPE 2.38, HEPG2TOX_R_SQUARED 0.828, PBLUC_HILL_SLOPE 9.41, PBLUC_R_SQUARED 0.824, read-out: LUCIFERASE INFECTION ASSAY - IC50) came out at 2.64 µM.

Turning to `O=C(c1cccs1)c1c(-c2ccccc2)cc2ccccn12`, the IC90 turned out to be 3.73 µM. Also, where the note is “HEPG2TOX_HILL_SLOPE 2.42, HEPG2TOX_R_SQUARED 0.887, PBLUC_HILL_SLOPE 12.4, 11.2, PBLUC_R_SQUARED 0.720, 0.734, read-out: LUCIFERASE INFECTION ASSAY - IC50”, the IC50 came out at 3.1 µM.

Regarding `Cc1ccc(/C(C#N)=C/c2ccc3c(c2)OCO3)cc1`, the IC90 was greater than 12.5 µM. Where the note is “HEPG2TOX_HILL_SLOPE 2.41, HEPG2TOX_R_SQUARED 0.881, PBLUC_HILL_SLOPE 2.57, PBLUC_R_SQUARED 0.299, read-out: LUCIFERASE INFECTION ASSAY - IC50”, the IC50 worked out at 9.11 µM.

With `Cc1cc(Br)c(NC(=S)NC(=O)C(C)(C)C)c(Br)c1`, the IC90 is greater than 8.09 µM. Moreover, under “HEPG2TOX_HILL_SLOPE 2.38, HEPG2TOX_R_SQUARED 0.209, read-out: LUCIFERASE INFECTION ASSAY - IC50”, the IC50 was greater than 8.09 µM.

Take `CNc1ccc2ncc(-c3ccccc3)n2n1`: the IC90 stood at 13.6 µM. Also, the IC50 (HEPG2TOX_HILL_SLOPE 2.41, HEPG2TOX_R_SQUARED 0.973, PBLUC_HILL_SLOPE 2.77, PBLUC_R_SQUARED 0.442, read-out: LUCIFERASE INFECTION ASSAY - IC50) came out at 6.15 µM.

Turning to `CCOC(=O)c1sc(N)c(C#N)c1COC(=O)C1(c2cccc(F)c2)CCCC1`, the IC90 was 8.29 µM. Under “HEPG2TOX_HILL_SLOPE 2.42, HEPG2TOX_R_SQUARED 0.924, PBLUC_HILL_SLOPE 2.7, PBLUC_R_SQUARED 0.388, read-out: LUCIFERASE INFECTION ASSAY - IC50”, the IC50 was 3.67 µM.

Consider `Cc1cccc(C)c1NC(=S)NC1CC(C)CC(C)(C)C1` (stereo not drawn), for which the IC90 was 5.5 µM. For the same molecule, the IC50 (HEPG2TOX_HILL_SLOPE 2.42, HEPG2TOX_R_SQUARED 0.462, PBLUC_HILL_SLOPE 8.54, PBLUC_R_SQUARED 0.744, read-out: LUCIFERASE INFECTION ASSAY - IC50) was 4.25 µM.

With `O=C(Nc1nc2ccccc2[nH]1)c1ccoc1`, the IC90 is greater than 10 µM. In addition, the IC50 (HEPG2TOX_HILL_SLOPE 2.41, HEPG2TOX_R_SQUARED 0.931, read-out: LUCIFERASE INFECTION ASSAY - IC50) is greater than 10 µM.

Regarding `CC(=O)Nc1cccc(-c2ccc3ncc(-c4ccc5c(c4)OCO5)n3n2)c1`, the IC90 came to 3.94 µM. Further, the IC50 (HEPG2TOX_HILL_SLOPE 2.37, HEPG2TOX_R_SQUARED 0.964, PBLUC_HILL_SLOPE 13.4, PBLUC_R_SQUARED 0.492, read-out: LUCIFERASE INFECTION ASSAY - IC50) stood at 3.34 µM.

In the case of `Clc1ccc2c(c1)C(Nc1ccc3nnnn3n1)CCS2` (stereo not drawn), the IC90 is greater than 10 µM. In addition, the IC50 (HEPG2TOX_HILL_SLOPE 2.38, HEPG2TOX_R_SQUARED 0.171, read-out: LUCIFERASE INFECTION ASSAY - IC50) is greater than 10 µM.

As for `C=CCNC(=O)NC(=O)CSc1nnc(-c2ccc(OC)cc2)n1-c1cccc(C(F)(F)F)c1`, the 90% effect concentration (IC90) came to 6.91 µM. Moreover, the IC50 (HEPG2TOX_HILL_SLOPE 2.39, HEPG2TOX_R_SQUARED 0.903, PBLUC_HILL_SLOPE 3.60, 2.97, PBLUC_R_SQUARED 0.951, 0.459, read-out: LUCIFERASE INFECTION ASSAY - IC50) stood at 3.56 µM.

Take `COc1ccc(Nc2c(Cl)cc(OC)cc2Cl)cc1`: the IC90 worked out at 3.85 µM. Under “HEPG2TOX_HILL_SLOPE 2.37, HEPG2TOX_R_SQUARED 0.991, PBLUC_HILL_SLOPE 4.31, PBLUC_R_SQUARED 0.544, read-out: LUCIFERASE INFECTION ASSAY - IC50”, the half-maximal inhibitory concentration (IC50) was determined as 2.31 µM.

For `CCn1nc(C(=O)NCc2ccc(OC)cc2)c2c1CCN(C(=O)C1Cc3ccccc3O1)C2` (stereo not drawn), the IC90 is 6.24 µM. For the setting “HEPG2TOX_HILL_SLOPE 2.42, HEPG2TOX_R_SQUARED 0.906, PBLUC_HILL_SLOPE 2.97, PBLUC_R_SQUARED 0.096, read-out: LUCIFERASE INFECTION ASSAY - IC50”, the IC50 turned out to be 2.98 µM.

Take `c1ccc(SCc2ccc(-c3nc4ccccc4s3)cc2)nc1`: the IC90 came to 8.53 µM. In addition, where the note is “HEPG2TOX_HILL_SLOPE 2.39, HEPG2TOX_R_SQUARED 0.939, PBLUC_HILL_SLOPE 0.884, PBLUC_R_SQUARED 0.644, read-out: LUCIFERASE INFECTION ASSAY - IC50”, the IC50 is 0.71 µM.

Take `COc1cc(OC)cc(-c2cn3c(-c4ccc5ncccc5c4)cnc3cn2)c1`: the IC90 stood at 6.15 µM. In addition, for the setting “HEPG2TOX_HILL_SLOPE 2.4, HEPG2TOX_R_SQUARED 0.938, PBLUC_HILL_SLOPE 4.1, PBLUC_R_SQUARED 0.34, read-out: LUCIFERASE INFECTION ASSAY - IC50”, the IC50 is 3.6 µM.

Regarding `Cn1nc(-c2ccccc2)c(-c2nc3ccccc3n2C)c1-c1ccccc1`, the IC90 was determined as 8.97 µM. The half-inhibitory concentration (IC50) (HEPG2TOX_HILL_SLOPE 2.41, HEPG2TOX_R_SQUARED 0.613, PBLUC_HILL_SLOPE 4.44, PBLUC_R_SQUARED 0.302, read-out: LUCIFERASE INFECTION ASSAY - IC50) came to 5.47 µM.
